# According to article PMC9374667 (Communications Biology, 2022):
# Values joined by “and” are separate entries in the source; they are usually repeats but may differ in a detail not shown here. Identical values can stand only once.
# Legend:
# TBK1 [1] = molecular target: T1, TBK1 (Mus musculus, UniProt Q9WUN2); experiment: TBK1 kinase activity in TNF-α induced 3T3-L1 adipocytes; format: cell-based, Murine; set-up: host or cells: differentiated 3T3-L1 adipocytes (Lipofectamine 2000); TBK1 kinase activity: unit not given here; conditions: for TBK1 kinase activity: Figure 7g, replicates
# T1 sequence (Q9WUN2 1-729): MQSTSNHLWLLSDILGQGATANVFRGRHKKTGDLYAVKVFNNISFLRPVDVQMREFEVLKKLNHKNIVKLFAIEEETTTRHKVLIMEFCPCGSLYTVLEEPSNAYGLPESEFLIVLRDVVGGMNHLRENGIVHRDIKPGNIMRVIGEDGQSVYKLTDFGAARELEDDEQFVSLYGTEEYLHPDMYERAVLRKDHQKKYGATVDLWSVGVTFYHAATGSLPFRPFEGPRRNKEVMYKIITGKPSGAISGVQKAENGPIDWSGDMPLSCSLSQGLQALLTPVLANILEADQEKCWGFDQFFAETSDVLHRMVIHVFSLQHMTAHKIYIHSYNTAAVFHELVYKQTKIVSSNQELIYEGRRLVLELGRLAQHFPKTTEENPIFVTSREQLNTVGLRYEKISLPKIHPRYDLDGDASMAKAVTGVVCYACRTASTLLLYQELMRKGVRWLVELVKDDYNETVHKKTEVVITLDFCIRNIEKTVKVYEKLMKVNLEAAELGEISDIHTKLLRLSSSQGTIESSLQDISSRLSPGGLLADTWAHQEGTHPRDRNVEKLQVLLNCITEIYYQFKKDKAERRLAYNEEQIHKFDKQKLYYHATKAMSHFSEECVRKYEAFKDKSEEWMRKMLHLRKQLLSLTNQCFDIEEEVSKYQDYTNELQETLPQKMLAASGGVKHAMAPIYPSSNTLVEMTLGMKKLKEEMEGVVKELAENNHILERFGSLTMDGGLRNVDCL
# TBK1 [2] = molecular target: T1, TBK1; experiment: TBK1-knockdown 3T3-L1 adipocytes (siRNA; western blotting, immunofluorescence); format: cell-based, Murine; set-up: host or cells: differentiated 3T3-L1 adipocytes (Lipofectamine 2000); TBK1 (western blotting, Figure 9b) / p-AMPK (western blotting, Figure 9c) / UCP1 (western blotting, Figure 9d): unit not given here; conditions: for MitoTracker (immunofluorescence, Figure 9f) / UCP1 (immunofluorescence, Figure 9g): replicates 1-12
# Protocol: Small interference RNA transfection (siRNA) was performed using 4 μM TBK1 siRNA (siTBK1) or 4 μM […]ε) or corresponding NC siRNA (siNC). The 3T3-L1 adipocytes were washed with PBS for 3 times, fixed with 4% paraformaldehyde solution for 30 min, and then washed again for 3 times. […] The cells were then incubated overnight at 4 °C with the appropriate primary antibodies (1:100 dilution). The next day, the 3T3-L1 adipocytes were washed and incubated at room temperature with goat anti-rabbit secondary antibody or goat anti-mouse secondary antibody (1:1000 dilution) for 2 h and washed with PBS for 3 times. The nuclei were stained with DAPI. […] Fluorescence images were taken using a laser confocal microscope (SP8, Leica, Germany). At least four images per section were acquired for quantification, and the mean intensity were evaluated using ImageJ. The adipose tissue or 3T3-L1 adipocytes were homogenized by ultrasound in an ice-cold RIPA lysis buffer containing 1% PMSF and centrifuged at 12,000 × g at 4°C for 15 min to collect the supernatant. The BCA protein assay kit (Beyotime, Shanghai, China) was used to detect the total protein concentration. Proteins (20-30 μg) of the sample were separated by 10% SDS-PAGE gel and transferred onto polyvinylidene difluoride (PVDF) membranes. Then the PVDF membranes were blocked in 5% skim milk powder in TBS containing 1% Tween-20 (TBST) for 2 h at room temperature and washed with TBST for 3 times. […] After washing, the membranes were incubated with horseradish peroxidase-conjugated secondary antibodies (in 5% skim milk powder) for 1 h at room temperature. Finally, the membranes were treated with enhanced chemiluminescence agents (Tanon, Shanghai, China) and the signals were monitored using the Tanon 5200 multi chemiluminescent imaging system (Tanon, Shanghai, China).
# [3] = no reference given; cited from earlier work
# [4] = In vivo pharmacokinetics studies after gavage; conditions: male, SD, rat, plasma, po
# Protocol: The pharmacokinetic parameters were calculated by the statistical moment method of non-atrioventricular model.
# Blood samples (0.5 mL) were collected from the retro-orbital venous plexus at appropriate time points and placed in collection tubes with anticoagulants. Plasma was obtained from the blood samples by centrifuged (4000 rpm, 10 min, 4 °C) and stored at −20 °C until analysis. 400 µL of acetonitrile was added to 200 µL of rat plasmas, and vortexed for 90 s and finally centrifuged at 12,000 rpm for about 10 min. 20 µL of the supernatant was used to determinate the concentration of berberine in plasma by using the liquid chromatography-mass spectrometry (Waters XBridge, Waters, USA).
# The maximum peak concentration (Cmax) and the time of reaching Cmax (Tmax) can be obtained from the measured data. The area under the concentration-time curve (AUC0→t) was estimated by the trapezoidal summation. The area under the curve from time zero to infinity (AUC0→∞) was also determined..
# db/db mice = experiment: Spontaneous motor activity (CLAMS, infrared beam breaks); format: in vivo; conditions: BBR 150mg/kg, individual mice 1-6
# Protocol: At week 5 of treatment, basal metabolic parameters of mice were measured using the Comprehensive Lab Animal Monitoring System (CLAMS, Columbus Instruments, Columbus, OH). […] The number of times the infrared beams were broken along the X- or Y-axis was used to measure the dynamic activity of mice. The respiratory exchange rate (RER) was calculated using classical Lusk theory and equations RER = VCO2/VO2.
smiles,measurement,setting,value
"CC(C)Cc1ccc(C(C)C(=O)[O-])cc1.COc1ccc2cc3[n+](cc2c1OC)CCc1cc2c(cc1-3)OCO2.O.O.O.O [BJ, berberine-ibuprofen]",TBK1 kinase activity,TBK1 [1]; TNF-α(50ng/ml)+3μM BJ,30.9473 and 32.9827 and 24.4703 and 29.2741 and 25.0999 and 33.9831
same,TBK1 kinase activity,TBK1 [1]; TNF-α(50ng/ml)+10μM BJ,22.2193 and 16.8634 and 20.5634 and 20.4771 and 22.3055 and 16.9152
same,TBK1 expression level / kinase activity,"TBK1 [1]; TNF-α induced 3T3-L1 adipocytes, BJ treatment for 24 h",markedly decreased
same,"TBK1 (western blotting, Figure 9b)",TBK1 [2]; 10μM BJ,0.1548 and 0.1822 and 0.1679
same,"UCP1 (western blotting, Figure 9d)",TBK1 [2]; 10μM BJ,0.6444 and 0.6902 and 0.5582
same,"p-AMPK (western blotting, Figure 9c)",TBK1 [2]; 10μM BJ,0.3674 and 0.4043 and 0.3553
same,"MitoTracker (immunofluorescence, Figure 9f)",TBK1 [2]; 10μM BJ,22.957 and 24.343 and 25.025 and 18.793 and 24.708 and 21.147 and 28.941 and 23.595 and 21.858 and 24.262 and 23.917 and 27.936
same,"UCP1 (immunofluorescence, Figure 9g)",TBK1 [2]; 10μM BJ,28.366 and 25.764 and 25.784 and 25.906 and 27.454 and 28.774 and 34.011 and 26.939 and 25.523 and 31.625 and 28.718 and 27.261
same,Expression of p-AMPKα and UCP1,"TBK1 [2]; 3T3-L1 adipocytes, BJ alone, 24 h",significantly increased the expression of p-AMPKα and UCP1
same,Expression levels of p-AMPKα and UCP1,"TBK1 [2]; TBK1-knockdown 3T3-L1 adipocytes treated with BJ, vs TBK1-knockdown",not significantly changed
same,"TBK1 (western blotting, Figure 9b)",TBK1 [2]; siTBK1+10μM BJ,0.1211 and 0.0965 and 0.1123
same,"UCP1 (western blotting, Figure 9d)",TBK1 [2]; siTBK1+10μM BJ,0.7411 and 0.669 and 0.5981
same,"p-AMPK (western blotting, Figure 9c)",TBK1 [2]; siTBK1+10μM BJ,0.4095 and 0.4234 and 0.498
same,"MitoTracker (immunofluorescence, Figure 9f)",TBK1 [2]; siTBK1+10μM BJ,25.218 and 30.785 and 30.877 and 30.71 and 22.848 and 22.479 and 31.768 and 31.566 and 27.335 and 20.91 and 29.763 and 33.52
same,"UCP1 (immunofluorescence, Figure 9g)",TBK1 [2]; siTBK1+10μM BJ,30.066 and 28.142 and 35.211 and 34.925 and 27.446 and 30.425 and 28.118 and 35.655 and 39.617 and 27.871 and 25.612 and 40.285
"COc1ccc2cc3[n+](cc2c1OC)CCc1cc2c(cc1-3)OCO2 [BBR, Berberine chloride dihydrate]",Oral bioavailability,[3],below 1%
same,Tmax,[4],30 ± 4.8 min
same,Spontaneous motor activity (Figure 3j),db/db mice; TIME 09:00:00,453.5 and 1366 and 855.5 and 150 and 210.5 and 798
same,Spontaneous motor activity (Figure 3j),db/db mice; TIME 10:00:00,578.5 and 328 and 167.5 and 335.5 and 115 and 382
same,Spontaneous motor activity (Figure 3j),db/db mice; TIME 11:00:00,144.5 and 288.5 and 281.5 and 646 and 886.5 and 449
same,Spontaneous motor activity (Figure 3j),db/db mice; TIME 12:00:00,559 and 373.5 and 450.5 and 378.5 and 424.5 and 29.5
same,Spontaneous motor activity (Figure 3j),db/db mice; TIME 13:00:00,620.5 and 553.5 and 835.5 and 411 and 498 and 330
same,Spontaneous motor activity (Figure 3j),db/db mice; TIME 14:00:00,823.5 and 171 and 498 and 447 and 397.5 and 455
same,Spontaneous motor activity (Figure 3j),db/db mice; TIME 15:00:00,870 and 677.5 and 611.5 and 326 and 849.5 and 246
same,Spontaneous motor activity (Figure 3j),db/db mice; TIME 16:00:00,482.5 and 647.5 and 365.5 and 416.5 and 803.5 and 105
same,Spontaneous motor activity (Figure 3j),db/db mice; TIME 17:00:00,814 and 1029.5 and 535.5 and 427.5 and 177.5 and 328
same,Spontaneous motor activity (Figure 3j),db/db mice; TIME 18:00:00,694 and 351 and 1055.5 and 323.5 and 1331.5 and 362
same,Spontaneous motor activity (Figure 3j),db/db mice; TIME 19:00:00,242 and 551.5 and 453.5 and 327.5 and 706.5 and 367
same,Spontaneous motor activity (Figure 3j),db/db mice; TIME 20:00:00,34.5 and 1152.5 and 475 and 298.5 and 432.5 and 477
same,Spontaneous motor activity (Figure 3j),db/db mice; TIME 21:00:00,863 and 737 and 845.5 and 99.5 and 506 and 314
same,Spontaneous motor activity (Figure 3j),db/db mice; TIME 22:00:00,320.5 and 467 and 701 and 142 and 156 and 371.5
same,Spontaneous motor activity (Figure 3j),db/db mice; TIME 23:00:00,428.5 and 928 and 390.5 and 869 and 897 and 315.5
same,Spontaneous motor activity (Figure 3j),db/db mice; TIME 1900-01-01 01:00:00,479.5 and 494 and 426 and 899
same,Spontaneous motor activity (Figure 3j),db/db mice; TIME 1900-01-01,542.5 and 374 and 305.5 and 238 and 658 and 526
